Experimental data: patent US20100210649A1, “PYRIDAZINONES AND FURAN-CONTAINING COMPOUNDS” (Sloan-Kettering Institute for Cancer Research, priority 2006, published 2010)

Key:
in vitro = conditions: human
H1118 = assay: Non Small Cell Lung Cancer proliferation assay (Alamar Blue reduction), H1118; assay type: cell-based; conditions: Homo sapiens; H1118; 12 point doubling dilution 10 uM to 5 nM; 48 h treatment, alamar blue additional 48 h; read-out: IC50 H1118
Experimental: Non Small Cell Lung Cancer Proliferation Assay. To perform the assay, the Non Small Cell Lung Cancer lines are diluted in media and plated into 384 well microplates at a final density of 250 cells in […]. To ensure consistency and minimal pipetting error, the cells are plated using the Multidrop 384 with the following settings: Rocker Switch set at 384, Volume 45 and Column 24.
Low Controls for this assay are made by treating Non Small Cell Lung Cancer cells with 5 ul of staurosporine at 250 uM in 10% DMSO and 1% SDS. [Final concentration in this assay is 25 uM staurosporine in 1% DMSO and 0.1% SDS.]
High Controls for this assay are made by treating Non Small Cell Lung Cancer cells with 5 ul of 10% DMSO. [Final concentration in this assay is 1% DMSO].
The remaining wells of the 384 microplate may be treated with different compounds depending on the study. Important Note: All compounds for testing in this assay should be done at the final concentration of 1% DMSO.
After addition, the cells are placed in cell culture incubator at 37° C. for 48 hours for complete treatment.
After drug treatment, cytotoxicity is measured by Alamar Blue reduction. 5 μL of Alamar Blue is added to the 384 microplates using the Flexdrop.
The cells are incubated for 48 hours at 37° C. to complete the Alamar Blue reduction.
The final step in the assay is to measure the amount of Alamar Blue reduction. […] The Alamar Blue fluorescence is measured at an excitation of 530 nm and emission of 590 nm.
For the NSCLC project, the cell based assay was screened against a small molecule library of approximately 200,000 compounds. The compound library is stored in our automated robotic freezer (Biophile) at −20° C. in 100% DMSO. Compound freeze and thaw cycles are kept to a minimum. Compounds for use are diluted into the appropriate concentration and plated into 384 well microplates using our custom built low volume 384-well head tool (TPS 384, Apricot Designs Inc., CA, USA). This assay was performed on a fully automated linear track robotic platform (CRS F3 Robot System, Thermo Electron Corp., Ontario, Canada) utilizing several integrated peripherals for plate handling, liquid dispensing, and readout detection. First, non-small cell lung cancer cell lines are dispensed into 384 well microplates (Corning #3712 Tissue Culture Treated Plate, Corning, N.Y., USA) with 5 μL of test compounds at 100 uM in 10% DMSO for screening studies or […] in 10% DMSO to 50 nM in 10% DMSO for dose response studies. The microplates are then placed at 37° C. for 48 hours to complete treatment of cells with compounds. Next, 5 ul of alamar blue was added using a liquid dispenser (Flexprop Precision Dispenser, Perkin Elmer, Mass., USA) and incubated for 48 hours at 37° C. The alamar blue prompt fluorescence was measured on Victor V (Victor^3 V, Perkin Elmer, Mass., USA) and output data files were loaded into ORIS (Oncology Research Informatics System, MSKCC, NY, USA), a screening data acquisition and analysis platform.
(§1) The dose response studies were done with the following standard procedure. First, the cells were counted and dispensed at 250 cells/well into 384-well microplates with compound. The cells were incubated for 48 hours at 37 C to complete treatment, and then alamar blue was added for an additional 48 hours. Finally, alamar blue reduction was measured and the data was loaded into ORIS, our data screening acquisition platform.

H2444 = assay: Dose response study (Alamar Blue), H2444; assay type: cell-based; conditions: Homo sapiens, NCI-H2444; H2444; 12 point doubling dilution 10 uM to 5 nM; 48 h treatment, alamar blue additional 48 h; read-out: IC50 H2444
Experimental: (§2) Dose response studies against 34 compounds from the pyridazinone and phenylfuran-carboxamide class were conducted. […] In addition, Tarceva was included in these dose response studies.
as §1

[1] = tested on: HPL1D (human peripheral lung epithelial) cell line; assay: Cell proliferation / dose response (Alamar Blue), HPL1D; assay type: cell-based; conditions: HPL1D, 12 point doubling dilution 10 uM to 5 nM, 48 h treatment, alamar blue additional 48 h, read-out: IC50 HPL1D
Experimental: WI-38: human lung fibroblast cell line. […] WT: wildtype; WT*: over-expressed wildtype. Dose response studies against 34 compounds from the pyridazinone and phenylfuran-carboxamide class were conducted. […] In addition, Tarceva was included in these dose response studies. The dose response studies were done with the following standard procedure. […] The cells were incubated for 48 hours at 37 C to complete treatment, and then alamar blue was added for an additional 48 hours. Finally, alamar blue reduction was measured and the data was loaded into ORIS, our data screening acquisition platform.

A549 = assay: Dose response study (Alamar Blue), A549; assay type: cell-based; conditions: Homo sapiens; A549; 12 point doubling dilution 10 uM to 5 nM; 48 h treatment, alamar blue additional 48 h; read-out: IC50 A549
Experimental: as §2, §1

SMILES | IC50 at 72 h (in vitro; CytoTox (uM) NHBE) [µM] | IC50 at 72 h (in vitro; CytoTox (uM) WI-38) [µM] | IC50 (H1118) [nM] | IC50 (H2444) [nM] | IC50 [1] [nM] | IC50 (A549) [nM]
O=c1c(Br)c(Br)cnn1-c1ccccn1 [compound 267073] | 1.33 | 0.89 | 100 | 130 | 110 | 310
O=c1c(Cl)c(Cl)cnn1-c1ccc(Cl)cc1Cl [compound 267077] | 1.1 | 1.74 | 3730 | 4680 | 4950 | > 10000
COc1cccc(-n2ncc(Br)c(Br)c2=O)c1 [compound 267083] | 1.85 | 2.6 | 270 | 280 | 220 | 1070
COCCOc1cccc(-n2ncc(Br)c(Br)c2=O)c1 [compound 267084] | 2.56 | 2.33 | 230 | 230 | 180 | 840
Cc1cccc(-n2ncc(I)c(I)c2=O)c1 [compound 267085] | 2.88 | 5.51 | 1030 | 530 | 680 | 3270
O=c1c(Cl)c(Cl)cnn1-c1ccccn1 [compound 267090] | 1.43 | 1.19 | 150 | 220 | 170 | 540
NCCCOc1cccc(-n2ncc(Br)c(Br)c2=O)c1 [compound 273634] | 2.94 | 4.53 | 570 | 400 | 350 | 1650
